# In US20220354957A1, “PEPTIDES TARGETING MACROPHAGES, AND CONJUGATES, COMPOSITIONS, AND USES THEREOF” (Twinpig Biolab, Inc., priority 2021, published 2022):
# pIC50: −log10 of the molar value.
# Tests used:
# [1] = tested on: macrophages treated with TCM; assay: Cell viability of macrophages differentiated by TCM; type: cell-based, human; conditions: 1 μM
# CT26 = assay: Colon cancer model (CT26); type: in vivo, mouse; conditions: vs PBS group
# From the text: (§1) BALB/c and C57BL/6 (B6) wild-type mice were purchased from DBL. For the subcutaneous tumor model of melanoma and prostate cancer, CT26 (3×10^5 cells/mouse), B16F10 (1×10^6 cells/mouse) and TRAMP-C2 cells (1×10^6 cells/mouse) were mixed with Matrigel matrix (Corning) and inoculated subcutaneously into the right flank of the mice, and 4T1 (1×10^5 cells/mouse) cells mixed with Matrigel matrix and inoculated into a 4th mammary fat pad of the mice. TAMpepK, and MpepK peptides (200 nmol/kg) were injected intraperitoneally every 3 days, beginning at day 7 after tumor inoculation, and tumor volume was measured by electronic caliper. All tumor tissues were harvested after the end of the study and tumor weight was measured by an electronic balance.
# 4T1 = assay: 4th mammary orthotopic mouse model of breast cancer (4T1); type: in vivo
# From the text: as §1
# Total RNA was extracted using Easy-Blue reagent. Concentrations of RNA were determined and quantified by measuring absorbance at 260 and 280 nm with a spectrophotometer. Complementary DNA (cDNA) was synthesized from total RNA using a Maxime RT PreMix kit (iNtRON). Real-time PCR analysis was performed with SYBR Green Master Mix. PCR conditions were forty-five cycles at 95° C. for 5 min, followed by 95° C. for 10 sec, 60° C. for 10 sec and 72° C. for 10 sec. mRNA expression were quantified in triplicate. Data were measured with CFX Software (Bio-Rad). GAPDH and β-actin were used as internal controls.
# [2] = tested on: murine melanoma cells (B16F10 cell line); assay: Mouse model of melanoma (subcutaneous B16F10); type: in vivo; conditions: vs PBS group
# From the text: as §1
# PC3 cells = assay: Invasion assay of prostate cancer cells with conditioned medium of macrophages; type: cell-based, human; conditions: conditioned medium of M2 macrophages and M2-like TAMs pretreated with peptide
# Method: To obtain conditioned media of tumor (TCM), PC3 cells were seeded at 2×10^5 cells/well in culture medium in 24-well plates (Corning Inc). After 24 hours, the medium was changed to serum-free RPMI1640 medium and the cells were incubated for 24 hours. For conditioned media of macrophages, THP-1 cells were seeded at 2×10^5 cells/well in culture medium in 24-well plates (Corning Inc) and incubated with 100 nM PMA for 24 h. Cells were polarized into M0, M1, and M2 macrophages or TAM macrophages by TCM and changed to serum-free RPMI1640 medium. After 24 hours, the medium was changed to serum-free RPMI1640 medium and the cells were incubated for 24 hours. Supernatants were harvested and clarified with syringe filters (0.2 μm, Milipore). […]
# The invasiveness of prostate cancer cells treated with conditioned media of macrophages was tested according to the manufacturer's instructions for the invasion assay (Corning Inc.) with slight modifications. Briefly, invasiveness was assessed using 24-well plates fitted with polycarbonate 8-μm pore membrane inserts (Corning Inc.) pre-coated with Matrigel (200-300 μg/mL) for 2 hours at 37° C. […] Five randomly selected fields per membrane were counted under a light microscope (Olympus). The invasion index was calculated from the number of cells that migrated in response to conditioned medium compared with the control without conditioned medium.
# [3] = tested on: lung fibrosis induced by bleomycin; assay: Mouse model of lung fibrosis (bleomycin); type: in vivo
# Method: For lung fibrosis mouse model, C57BL/6 (B6) wild-type mice were lightly anesthetized with 2.5% isoflurane and administered bleomycin (BLM, 2 mg/kg) via oropharyngeal aspiration (OA) using a micropipette. After 14 days, the mice were intraperitoneally injected with MpepK (200 nmol/kg) every other day. The animal studies were approved by the Institutional Animal Care and Use Committee of Kyung Hee University (KHUASP(SE)-20-530 for melanoma and 20-382 for prostate cancer). All animals were maintained in a specific pathogen-free environment on a 12-h light/dark cycle with free access to food and water. Nesting sheets were used for enrichment. After the experiments were terminated, all mice were euthanized using isoflurane and cervical dislocation.
# Total RNA was extracted using Easy-Blue reagent. Concentrations of RNA were determined and quantified by measuring absorbance at 260 and 280 nm with a spectrophotometer. […] PCR conditions were forty-five cycles at 95° C. for 5 min, followed by 95° C. for 10 sec, 60° C. for 10 sec and 72° C. for 10 sec. mRNA expression were quantified in triplicate. Data were measured with CFX Software (Bio-Rad). […]
# The lung tissues of lung fibrosis mouse model were fixed in 10% neutral buffered formalin and embedded in paraffin. […] The sections were examined and evaluated randomly using standard light microscopy (Olympus).
# M2 macrophages = assay: Cell viability test (CCK-8) of dKLA-conjugated alanine-substituted peptides; type: cell-based, human; conditions: 1.5 μM, 1 hour then 24 hours, CCK-8, compared to control M2 macrophage
# Method: (§2) THP-1 monocytes were differentiated into macrophages (M0) by 24 h incubation with 100 nM phorbol 12-myristate 13-acetate (PMA, Sigma) followed by 24 h incubation in RPMI medium (Invitrogen). Macrophages were polarized in M1 macrophages (M1) by incubation with 20 ng/ml of IFN-γ (Prospec) and 100ng/m1 of LPS (Sigma). Macrophage M2 polarization(M2) was obtained by incubation with 20 ng/ml of interleukin (IL) 4 (Prospec) and 20 ng/ml of interleukin 13 (Pro spec).
# (§3) […] Cell viability was analyzed using the CCK-8 assay: CCK-8 reagent (Enzo Life Sciences) was added to each well; incubation was continued for 2 hours, and absorbance was measured at 450 nm with a microplate reader (Molecular Devices).
# [4] = as above; type: cell-based, human; conditions: FIG. 25; read-out: cytotoxicity IC50 in M2 macrophages
# Method: as §2, §3
# [5] = B16F10 in C57BL6J mice, 200 nmol/kg i.p. every 3 days
smiles,measurement,setting,value
CC[C@H](C)[C@H](NC(=O)[C@H](CC(C)C)NC(=O)[C@H](C)NC(=O)[C@@H]1CCCN1C(=O)[C@H](CC(C)C)NC(=O)CNC(=O)[C@@H](NC(=O)[C@@H](NC(=O)[C@H](CC(C)C)NC(=O)[C@@H](NC(C)=O)C(C)C)[C@@H](C)O)[C@@H](C)O)C(=O)N[C@@H](CO)C(=O)N[C@@H](Cc1c[nH]c2ccccc12)C(=O)N[C@H](C(=O)N[C@@H](CCCCN)C(=O)N[C@@H](CCCNC(=N)N)C(=O)N[C@@H](CCCCN)C(=O)N[C@@H](CCCNC(=N)N)C(=O)N[C@@H](CCC(N)=O)C(=O)N[C@@H](CCC(N)=O)C(=O)NCC(=O)NCC(=O)NCC(=O)NCC(=O)N[C@@H](CO)C(=O)N[C@H](CCCCN)C(=O)N[C@H](CC(C)C)C(=O)N[C@H](C)C(=O)N[C@H](CCCCN)C(=O)N[C@H](CC(C)C)C(=O)N[C@H](C)C(=O)N[C@H](CCCCN)C(=O)N[C@H](CCCCN)C(=O)N[C@H](CC(C)C)C(=O)N[C@H](C)C(=O)N[C@H](CCCCN)C(=O)N[C@H](CC(C)C)C(=O)N[C@H](C)C(=O)N[C@H](CCCCN)C(=O)O)[C@@H](C)CC [MpepK],apoptosis in macrophages treated with TCM,[1],induced apoptosis
same,tumor volume,CT26,significantly reduced
same,tumor weight,CT26,not significantly changed
same,gene expression of arginase 1 (M2 macrophage marker),4T1; compared to PBS,significantly reduced
same,lung metastasis,4T1; vs PBS group,decreased
same,tumor volume,4T1; vs PBS group,decreased
same,tumor weight,4T1; vs PBS group,decreased
same,tumor volume,[2]; [5],reduced
same,tumor weight,[2]; [5],reduced
same,survival rate,[2]; B16F10 melanoma model,extended
same,invasion of PC3 cells,PC3 cells,significantly reduced
same,lung fibrosis induced by bleomycin,"[3]; 200 nmol/kg i.p. every other day, H&E",decreased
same,"gene expression related to fibrosis such as fos12, collagen type 1 and fibronectin 1",[3]; compared to PBS,significantly reduced
same,cytotoxic effect in M2 macrophages,M2 macrophages,significant cytotoxic effects
same,pIC50,[4],5.95
